Laboratory results published in ChEMBL document CHEMBL1147150, “Design and synthesis of a potent histone deacetylase inhibitor” (J Med Chem, 2007).
Square brackets hold non-standard residues; d marks the D form. Peptide text beside a SMILES is read from it. * marks the point of attachment. Asu = N[C@@H](CCCCCC(=O)O)C(=O)O; NHOH = ON*

Key:
Histone deacetylase 1 = Histone deacetylase 1 (Homo sapiens, UniProt Q13547); assay: Inhibition of human HDAC1
Histone deacetylase = assay: Inhibition of Histone deacetylase in HeLa cell nuclear extracts by fluorescence-based assay; design: species or system Homo sapiens
Histone deacetylase 8 = biological target: T1, Histone deacetylase 8 (Homo sapiens, UniProt Q9BY41); assay: Inhibition of human HDAC8
T1 sequence (Q9BY41 whole entry): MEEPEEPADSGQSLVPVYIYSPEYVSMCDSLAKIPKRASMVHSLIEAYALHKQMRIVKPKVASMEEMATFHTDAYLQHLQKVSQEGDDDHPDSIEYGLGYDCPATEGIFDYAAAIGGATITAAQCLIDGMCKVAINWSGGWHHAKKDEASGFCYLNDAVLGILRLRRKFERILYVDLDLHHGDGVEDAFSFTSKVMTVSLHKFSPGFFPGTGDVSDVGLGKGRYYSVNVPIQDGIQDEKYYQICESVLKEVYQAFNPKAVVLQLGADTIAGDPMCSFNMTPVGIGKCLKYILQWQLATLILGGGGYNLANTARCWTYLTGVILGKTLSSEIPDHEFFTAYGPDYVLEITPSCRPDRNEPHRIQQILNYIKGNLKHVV

Sequence of Histone deacetylase 1 (Q13547 whole entry): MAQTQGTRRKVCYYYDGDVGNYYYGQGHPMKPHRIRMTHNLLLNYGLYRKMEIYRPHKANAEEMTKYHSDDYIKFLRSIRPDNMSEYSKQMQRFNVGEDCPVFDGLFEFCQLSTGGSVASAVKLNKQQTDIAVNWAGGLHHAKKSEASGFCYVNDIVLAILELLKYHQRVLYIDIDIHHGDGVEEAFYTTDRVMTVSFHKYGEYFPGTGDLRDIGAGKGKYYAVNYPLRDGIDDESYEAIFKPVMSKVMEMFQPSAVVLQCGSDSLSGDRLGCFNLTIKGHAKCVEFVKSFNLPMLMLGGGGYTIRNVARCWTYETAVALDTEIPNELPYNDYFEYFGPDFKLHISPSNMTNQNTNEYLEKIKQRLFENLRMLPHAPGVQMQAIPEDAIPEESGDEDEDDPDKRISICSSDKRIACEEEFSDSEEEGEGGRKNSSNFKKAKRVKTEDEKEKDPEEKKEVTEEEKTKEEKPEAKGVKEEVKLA

Row | IC50 (Histone deacetylase 1) | IC50 (Histone deacetylase) | Compound | Ki (Histone deacetylase 1) | IC50 (Histone deacetylase 8) | Ki (Histone deacetylase 8) | Ki (Histone deacetylase)
1 | 40000 nM | 8100 nM | COC(=O)C(Cc1cccc(C[C@H](NC(C)=O)C(=O)O)c1)NC(=O)[C@@H](N)CCCCCC(=O)NO (stereo not given in full) | – | – | – | –
2 | 174 nM | 167 nM | COC(=O)[C@H](Cc1ccccc1)NC(=O)[C@H](CCCCCC(=O)NO)NC(=O)[C@H](C)NC(C)=O (Ac-Ala-[Asu](NHOH)-Phe-OMe) | – | – | – | –

Row | Compound | IC50 (Histone deacetylase 1) | IC50 (Histone deacetylase) | Ki (Histone deacetylase 1) | IC50 (Histone deacetylase 8) | Ki (Histone deacetylase 8) | Ki (Histone deacetylase)
3 | COC(=O)[C@@H]1Cc2cccc(c2)C[C@H](NC(C)=O)C(=O)N[C@@H](CCCCCC(=O)NO)C(=O)N1 | 57 nM | 46 nM | 4.15 nM | 231 nM | 5.32 nM | 13.67 nM
